Results on one compound are retold here after patent US20260232767A1, “INTERLEUKIN-23 RECEPTOR ANTAGONIST PEPTIDES FOR USE IN THE TREATMENT OF PSORIASIS” (Janssen Pharmaceutica NV, priority 2023, published 2026).

SMILES strings stand for the structures.

Common to all, as to assay type: in vivo, human
Assay [1] relates to subjects with moderate-to-severe plaque psoriasis. As to the kind of experiment: BSA, Example 1. The settings on record: each dose group vs placebo; Week 16. The source says: Subjects suitable for the method of the present invention satisfy one or more criteria for inclusion, as described below. In some embodiments, the present invention relates to the method and/or use, where the subject has a psoriasis effected Body Surface Area (BSA) of at least 10% before the start of treatment. Herein the term BSA will mean the measure of the percentage of total area of your body affected by psoriasis.
Clinician-reported outcomes including Psoriasis Area and Severity Index (PASI), Body Surface Area (BSA), Investigator's Global Assessment (IGA), Nail Psoriasis Area and Severity Index (NAPSI), Fingernail Physician's Global Assessment (f-PGA), Static Physician's Global Assessment of Genitalia (s-PGA-G), Physician's Global Assessment of Hands and/or Feet (hf-PGA), and Scalp Specific Investigator Global Assessment (ss-IGA) were obtained at Week 0, 8, and 16. PASI and IGA were also obtained at Weeks 1, 2, 4, and 12, and at Week 20, four weeks after the administration of the tablets has stopped.

Assay [2] has as its system IL-22. As to the kind of experiment: Serum IL-22 immunoassay. To be noted: all treatment groups relative to placebo. How it is done:
(§1) To evaluate psoriasis relevant systemic biomarkers (Beta-defensin 2 (BD-2), IL-17A, IL-17F, and IL-22), protein concentrations were measured in serum using validated immunoassays. The IL-17A (Catalog #03-0159-00) and IL-17F (Catalog #03-0164-00) assays used are commercially available SMC™-based high sensitivity immunoassays produced by the EMD Millipore Corporation. The manufacturer's protocols were followed and analyzed on the Erenna® instrument platform except for the use of 11 μL Elution Buffer B. While the IL-22 assay is also based on the SMC™ platform and run on the Erenna instrument, the assay was developed internally as a coated plate-based assay. The development and optimization of the BD-2 assay was done on the Meso Scale Discovery on the electrochemiluminescence-based platform, a division of Meso Scale Diagnostics LLC (MSD). For all assays, concentration adjustments were made to values measuring below empirically defined LLOQ or empirically defined ULOQ values. Assay QC verified performance of generated standard curves (average concentration recovery & CV of technical replicates) and control samples (inter-assay plate agreement (CV)).
(§2) Serum levels of psoriasis disease biomarkers BD-2, IL-22, IL-17A, and IL-17F relative to baseline were analyzed in patients who received placebo or the compound of Formula (I) and compared to clinical response. […]

Assay [3] relates to IL-17F. As to the kind of experiment: Serum IL-17F immunoassay. The settings on record: all treatment groups relative to placebo. As for the experimental part: as §1, §2

With `CC(=O)NCCCC[C@@H]1NC(=O)[C@H](Cc2c[nH]c3c(C)cccc23)NC(=O)[C@H]([C@@H](C)O)NC(=O)[C@H](CC(N)=O)NC(=O)[C@@H](NC(C)=O)C(C)(C)SSC(C)(C)[C@@H](C(=O)N[C@@H](Cc2ccc(OCCN)cc2)C(=O)N[C@@H](Cc2ccc3ccccc3c2)C(=O)NC2(C(=O)N[C@@H](CCC(=O)O)C(=O)N[C@@H](CC(N)=O)C(=O)N[C@@H](Cc3cccnc3)C(=O)N(C)CC(N)=O)CCOCC2)NC1=O` [IL-23 receptor antagonist peptide, Ac-[Pen]*-N-T-[W(7-Me)]-[Lys(Ac)]-[Pen]*-Phe[4-(2-aminoethoxy)]-[2-Nal]-[THP]-E-N-[3-Pal]-Sarc-NH2 (*[Pen]-[Pen]* formdisulfidebond)], in assay [1], the “Improvement (reduction) in BSA from baseline” value is “significantly greater improvement”. In addition, the IL-22 serum levels result in assay [2] was “statistically significant reduction”. Further, the IL-17F serum levels result in assay [3] is recorded as “Statistically significant reductions”.
